Test system: patients after acute myocardial infarction
Assay: Life quality, Seattle Angina Questionnaire (SAQ), same clinical trial
Assay type: in vivo, human
Conditions: PP
Text: 3508 patients who were in accordance with the diagnostic standards of AMI for 28 days to 2 years and differentiated as Qi deficiency and blood stagnation syndrome by TCM were studied. 0.5 g Chinese medicine composition prepared by the method of EXAMPLE 1 (Coded as QSYQ) was administrated half an hour after meal, 3 times per day.
There were 19 questions in the Seattle angina questionnaire (SAQ), including 5 parts: physical limitation (PL), anginal stability (AS), anginal frequency (AF), treatment satisfaction (TS) and disease perception (DP). After being given necessary explanation by doctors, the questions were answered independently by patients.
They included the overall survival time, angina pectoris score, TCM symptom score and life quality score, where angina pectoris score, TCM symptom score and life quality score were evaluated at randomization, in 1st, 3rd, 6th, 9th, 12th month after treatment and 18th month after follow-up.
All evaluation results of SAQ were described during the period of observation, and Wilcoxon rank sum test was used for inter-group comparison.
The evaluation results in the SAQ were depicted in different observations, and inter-group comparison was tested by Wilcoxon Rank-sum test.

CC(=O)Oc1ccccc1C(=O)O [Control group, aspirine]
SAQ 5th question, <1 time per week: number of patients (9 months after treatment): 412
SAQ 5th question, No onset: % of patients (9 months after treatment): (4.66%)
SAQ 5th question, No onset: number of patients (9 months after treatment): 67
SAQ 5th question, ≧3 times per week: % of patients (9 months after treatment): (29.49%)
SAQ 5th question, ≧3 times per week: number of patients (9 months after treatment): 424
SAQ 5th question, ≧4 times per day: % of patients (9 months after treatment): (0.49%)
SAQ 5th question, ≧4 times per day: number of patients (9 months after treatment): 7
SAQ 6th question, Dissatisfied: % of patients (9 months after treatment): (0.07%)
SAQ 6th question, Dissatisfied: number of patients (9 months after treatment): 1
SAQ 6th question, Highly satisfied: % of patients (9 months after treatment): (24.93%)
SAQ 6th question, Highly satisfied: number of patients (9 months after treatment): 359
SAQ 6th question, Mostly dissatisfied: % of patients (9 months after treatment): (1.53%)
SAQ 6th question, Mostly dissatisfied: number of patients (9 months after treatment): 22
SAQ 6th question, Mostly satisfied: % of patients (9 months after treatment): (59.38%)
SAQ 6th question, Mostly satisfied: number of patients (9 months after treatment): 855
SAQ 6th question, Partly satisfied: % of patients (9 months after treatment): (14.10%)
SAQ 6th question, Partly satisfied: number of patients (9 months after treatment): 203
SAQ 7th question, Dissatisfied: % of patients (9 months after treatment): (0.07%)
SAQ 7th question, Dissatisfied: number of patients (9 months after treatment): 1
SAQ 7th question, Highly satisfied: % of patients (9 months after treatment): (28.44%)
SAQ 7th question, Highly satisfied: number of patients (9 months after treatment): 409
SAQ 7th question, Most dissatisfied: % of patients (9 months after treatment): (0.83%)
SAQ 7th question, Most dissatisfied: number of patients (9 months after treatment): 12
SAQ 7th question, Mostly satisfied: % of patients (9 months after treatment): (59.74%)
SAQ 7th question, Mostly satisfied: number of patients (9 months after treatment): 859
SAQ 7th question, Partly satisfied: % of patients (9 months after treatment): (10.92%)
SAQ 7th question, Partly satisfied: number of patients (9 months after treatment): 157
SAQ Question 1-1 Mildly limited, number of patients (9 months after treatment): 18
SAQ Question 1-1 Mildly limited, percent of patients (9 months after treatment): (1.25%)
SAQ Question 1-1 Moderately limited, number of patients (9 months after treatment): 3
SAQ Question 1-1 Moderately limited, percent of patients (9 months after treatment): (0.21%)
SAQ Question 1-1 Not limited, number of patients (9 months after treatment): 1366
SAQ Question 1-1 Not limited, percent of patients (9 months after treatment): (95.06%)
SAQ Question 1-1 Other reasons, number of patients (9 months after treatment): 3
SAQ Question 1-1 Other reasons, percent of patients (9 months after treatment): (0.21%)
SAQ Question 1-1 Severely limited, number of patients (9 months after treatment): 0
SAQ Question 1-1 Severely limited, percent of patients (9 months after treatment): (0.00%)
SAQ Question 1-1 Slightly limited, number of patients (9 months after treatment): 47
SAQ Question 1-1 Slightly limited, percent of patients (9 months after treatment): (3.27%)
SAQ Question 1-2 Mildly limited, number of patients (9 months after treatment): 20
SAQ Question 1-2 Mildly limited, percent of patients (9 months after treatment): (1.39%)
SAQ Question 1-2 Moderately limited, number of patients (9 months after treatment): 4
SAQ Question 1-2 Moderately limited, percent of patients (9 months after treatment): (0.28%)
SAQ Question 1-2 Not limited, number of patients (9 months after treatment): 1358
SAQ Question 1-2 Not limited, percent of patients (9 months after treatment): (94.50%)
SAQ Question 1-2 Other reasons, number of patients (9 months after treatment): 5
SAQ Question 1-2 Other reasons, percent of patients (9 months after treatment): (0.35%)
SAQ Question 1-2 Severely limited, number of patients (9 months after treatment): 0
SAQ Question 1-2 Severely limited, percent of patients (9 months after treatment): (0.00%)
SAQ Question 1-2 Slightly limited, number of patients (9 months after treatment): 50
SAQ Question 1-2 Slightly limited, percent of patients (9 months after treatment): (3.48%)
SAQ Question 1-6: Mildly limited, patients (%) (9 months after treatment): (14.59%)
SAQ Question 1-6: Moderately limited, patients (%) (9 months after treatment): (11.31%)
SAQ Question 1-6: Not limited, patients (%) (9 months after treatment): (38.48%)
SAQ Question 1-6: Other reasons, patients (%) (9 months after treatment): (0.91%)
SAQ Question 1-6: Severely limited, patients (%) (9 months after treatment): (2.30%)
SAQ Question 1-6: Slightly limited, patients (%) (9 months after treatment): (32.40%)
SAQ Question 1-7: Mildly limited, patients (%) (9 months after treatment): (21.63%)
SAQ Question 1-7: Moderately limited, patients (%) (9 months after treatment): (10.88%)
SAQ Question 1-7: Not limited, patients (%) (9 months after treatment): (18.30%)
SAQ Question 1-7: Other reasons, patients (%) (9 months after treatment): (3.25%)
SAQ Question 1-7: Severely limited, patients (%) (9 months after treatment): (13.71%)
SAQ Question 1-7: Slightly limited, patients (%) (9 months after treatment): (32.23%)
SAQ Question 1-8: Mildly limited, patients (%) (9 months after treatment): (25.11%)
SAQ Question 1-8: Moderately limited, patients (%) (9 months after treatment): (14.11%)
SAQ Question 1-8: Not limited, patients (%) (9 months after treatment): (12.34%)
SAQ Question 1-8: Other limited, patients (%) (9 months after treatment): (3.76%)
SAQ Question 1-8: Severely limited, patients (%) (9 months after treatment): (17.23%)
SAQ Question 1-8: Slightly limited, patients (%) (9 months after treatment): (27.45%)
8th question: Dissatisfied, patients (%) (12 months after treatment): (0.00%)
8th question: Highly satisfied, patients (%) (12 months after treatment): (26.80%)
8th question: Mostly dissatisfied, patients (%) (12 months after treatment): (1.26%)
8th question: Mostly satisfied, patients (%) (12 months after treatment): (61.16%)
8th question: Partly satisfied, patients (%) (12 months after treatment): (10.78%)
9th question: Few, patients (%) (12 months after treatment): (41.42%)
9th question: Mild, patients (%) (12 months after treatment): (29.64%)
9th question: Moderate, patients (%) (12 months after treatment): (4.48%)

From patent US9211310B2, “Use of a Chinese medicine composition in preparing medicaments for treating secondary prevention of myocardial infarction” (TASLY PHARMACEUTICAL GROUP CO., LTD, priority 2010, dated 2015)
